Assay [1] relates to intracellular S. aureus strain UAMS-1 in primary mouse-derived osteoblasts (mOBs). Nature of the assay: Intracellular S. aureus eradication assay in murine osteoblasts. Particulars: mOB, 5 μg/ml, 2 h. The class given is cell-based. An excerpt: (§1) FIGS. 5a-5e depict peptidoglycan hydrolase-protein transduction domain (PGH-PTD) eradication of intracellular S. aureus in cultured cells. Cultured cells were infected, treated with gentamicin to kill extracellular S. aureus, and then treated with the peptidoglycan hydrolases indicated. All results are standardized to the gentamicin (GENT) only control. Nomenclature of the peptidoglycan hydrolase constructs is as in FIG. 1. Asterisks indicate statistical significance detected with single factor ANOVA (α=0.05) with paired t-test posthoc analyses α=0.05 adjusted with Sidák correction for multiple comparisons (for all cases p<0.01). […] Error bars represent SEM. […] Yellow staining in the combined panel represents intracellular co-localization (in a single plane as determined by z-stack analysis) of both S. aureus and K-L-PTD1 (blue arrow). […]
(§2) Three similar intracellular S. aureus eradication assays from three different labs were optimized for (A) a cultured bovine mammary epithelial cell line (MAC-T, Nexia Biotechnologies, Quebec, Canada; Almeida, supra), (B) primary C57BL/6 mouse-derived osteoblasts (mOBs) (McCall et al. 2008. J. Bone Miner. Res. 23: 30-40) or (C) human brain microvascular endothelial cells (hBMEC; Stins, supra). […] The cell lysate was subjected to serial dilution plating, and the resultant CFUs were counted and normalized to the gentamicin control for each assay. […]

Assay [2] deals with intracellular S. aureus Newbould 305 in bovine mammary epithelial cell line (MAC-T). Nature of the assay: Intracellular S. aureus eradication assay in MAC-T cells. The class given is cell-based. The following applies: 25 μg in 1 ml DMEM, 2.5 h.
Description: as §1, §2

In the case of “K-L: both LysK lytic domains fused to the N-terminus of lysostaphin; SEQ ID NO:5, protein SEQ ID NO:6”, the “intracellular S. aureus CFUs relative to gentamicin only control” value in assay [1] and in assay [2] was “reduced the intracellular bacteria recovered” each time.

Values taken from patent US20160097044A1, “Antimicrobial Enzyme Fusions Reduce Resistance and Kill Intracellular Staphylococcus aureus” (The United States of America, as Represented by the …, priority 2014, published 2016).
